Source: patent publication US20150359771A1, “TREATING PULMONARY CONDITIONS” (priority 2013, published 2015)

How the values were obtained:
IL 6 [1] = test: IL 6 secretion from MLEC, direct treatment, ELISA; type: cell-based, mouse; settings: FIG. 8
Description: (§1) Cells were grown in Dulbecco's modified eagle's medium (DMEM) containing a growth factor supplement (Cell Biologics # M1 166) which included 5% fetal bovine serum (FBS), heparin, EGF, hydrocortisone, L-glutamine and antibiotics at 37° C. in 5% CO2.
(§2) Interleukin 1-β, eotaxin, and interleukin 6 were all measured via enzyme-linked immunosorbent assay using specific antibodies for each cytokine (Abcam, Cambridge, Mass.) and a horseradish peroxidase-based second antibody detection system, with chromogenic detection at 450 nm using a microplate reader (Synergy HT, BioTek Instruments, Winooski, Vt.).
(§3) Following treatment, western blots or ELISA assays were performed on the MLEC to determine the level of various indicators of airway diseases, such as NFκB protein expression, eotaxin secretion, IL1-β secretion, cellular IL6 content or secretion, adiponectin receptor 1 protein expression, and adiponectin receptor 2 protein expression.

NFκB = NFκB protein expression in mouse primary lung endothelial cells (MLEC), direct treatment, Western blot; type: cell-based; settings: theophylline 1 μM, leucine 0.5 mM, resveratrol 200 nM, FIG. 1
phospho-NFκB = phospho-NFκB protein expression in MLEC, direct treatment, Western blot; type: cell-based, mouse; settings: theophylline 1 μM, leucine 0.5 mM, resveratrol 200 nM
Description: as §1
For Western blot, 2 μg (for NFκB) or 4 μg (for phospho-NFκB) of protein from the cell lysate was resolved on 10% Tris/HCL polyacrylamide gels (Criterion precast gel, Bio-Rad Laboratories, Hercules, Calif.), transferred to PVDF membranes (NFκB and phospho-NFκB), incubated in blocking buffer (3% BSA in TBS) and then incubated with primary antibody, washed and incubated with secondary horseradish peroxidase-conjugated antibody.
as §3

IL 6 [2] = test: cellular IL 6 content in MLEC, direct treatment; type: cell-based, mouse; settings: theophylline 1 μM, leucine 0.5 mM, resveratrol 200 nM, FIG. 7
Description: as §1, §2, §3

eotaxin = eotaxin secretion from MLEC, direct treatment, ELISA; type: cell-based, mouse; settings: theophylline 1 μM, leucine 0.5 mM, resveratrol 200 nM, FIG. 5
Description: as §2

IL1-β = IL1-β secretion from MLEC, direct treatment, ELISA; type: cell-based, mouse; settings: theophylline 1 μM, leucine 0.5 mM, resveratrol 200 nM, FIG. 4
Description: as §2

Question: Which “effect on IL 6 secretion (in words)” value (IL 6 [1]) does the source give for `Cn1c(=O)c2[nH]cnc2n(C)c1=O` [theophylline] here?
Answer: Its value is “no significant independent effect”.

Question: And the “effect on NFκB protein expression relative to control” value (NFκB)?
Answer: The value was “no independent effect”.

Question: What about the “effect on phospho-NFκB levels” value (phospho-NFκB) of the same molecule?
Answer: Its value is “no effect”.

Question: What about the “effect on cellular expression of IL 6” value (IL 6 [2]) of the same molecule?
Answer: The value was “unaffected”.

Question: And the “effect on eotaxin secretion (in words)” value (eotaxin)?
Answer: Its value is “no significant effect”.

Question: What about the “effect on IL1-β secretion (in words)” value (IL1-β) of the same molecule?
Answer: Its value is “no significant independent effect”.

Question: TNFα was tested. Which “effect on IL 6 secretion (in words)” value (IL 6 [1]) did it give?
Answer: Its value is “significant increase”.

Question: And the “effect on eotaxin secretion (in words)” value (eotaxin)?
Answer: Its value is “no significant effect”.

Question: What about the “effect on IL1-β secretion (in words)” value (IL1-β) of the same molecule?
Answer: Its value is “increase”.
